This note sets out measurements from the NIST ThermoML archive (doi:10.1021/je700741x).

± gives the expanded uncertainty stated by the source.

The conditions of the data set: 298.15 K; 101.33 kPa; Liquid.
In the case of `CC(C)O` [propan-2-ol], the mass density was 781.4 ± 1.1 kg/m3.

In the case of `C1CCCCC1` [cyclohexane], the mass density was found to be 774 ± 1 kg/m3.

As for `OCC(F)(F)F` [2,2,2-trifluoroethanol], the mass density is 1382.4 ± 1.6 kg/m3.

In the case of `CCO` [ethanol], the mass density stood at 785.2 ± 1 kg/m3.

One may read the mass density as the mass of a sample divided by its volume.
